Literature values as cited in US20170042147A1, “A miticide composition of prolonged action and its manufacturing process, a miticide strip and a procedure to control Varroa destructor mite” (COOP. DE TRABAJO APÍCOLA PAMPERO LTDA, priority 2014, published 2017).

Tested on: Varroa
Conditions: bee hives without brood; use in Europe

O=C(O)C(=O)O [Oxalic acid]
efficacy against Varroa: excellent efficacy
